Like-named read-outs stand apart in the source and are kept apart here.
Key:
Myzus persicae [1] = assay: Myzus persicae - spray test; format: in vivo; conditions: application rate of 500 g/ha, after 6 days, sprayed Chinese cabbage leaf discs infested by all stages, 100% = all aphids killed
Experimental: Myzus persicae—spray test Solvent: 78 parts by weight of acetone • • 1.5 parts by weight of dimethylformamide Emulsifier: 0.5 part by weight of alkylaryl polyglycol ether To produce an appropriate active ingredient formulation, 1 part by weight of active ingredient is mixed with the specified amounts of solvent and emulsifier, and the concentrate is diluted to the desired concentration with emulsifier-containing water. Discs of Chinese cabbage leaves (Brassica pekinensis) infested by all stages of the green peach aphid (Myzus persicae) are sprayed with an active ingredient formulation of the desired concentration. After 6 days, the efficacy in % is determined. 100% means that all the aphids have been killed; 0% means that no aphids have been killed.

[2] = log P determination by LC-MS in the acidic range; format: physicochemical
Excerpt: The LC-MS determination in the acidic range is effected at pH 2.7 using 0.1% aqueous formic acid and acetonitrile (contains 0.1% formic acid) as eluents, linear gradient from 10% acetonitrile to 95% acetonitrile. Alternatively, the determination is effected in the acidic range at pH 2.3 using 0.1% aqueous phosphoric acid and acetonitrile as eluents; linear gradient from 10% acetonitrile to 95% acetonitrile.

Myzus persicae [3] = assay: Myzus persicae - sachet test; format: in vivo; conditions: 100% = all animals killed
Summary of the method: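 Active ingredient dissolved with 2% N-methylpyrrolidone and 2% diacetone alcohol, diluted in water, then pipetted into nutrient medium. Plate sealed and paired with a plate carrying green peach aphids. Kill in % scored after the set time (100% = all dead, 0% = none dead).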

[4] = application rate of 6 ppm in nutrient medium
[5] = application rate of 30 ppm in nutrient medium

Cc1cc(N(C)C(=O)c2cccnc2)nn1-c1ncccn1 [Compound I-1-25, N-Methyl-N-[5-methyl-1-(pyrimidin-2-yl)-1H-pyrazol-3-yl]nicotinamide]
pest or weed control at 500 g/ha (Myzus persicae [1]; Myzus persicae, foliar, 144 h, read-out: efficacy in %): 100%
chromatographic logP ([2]; pH 2.7, LC-MS in the acidic range, read-out: log P (acid)): 1.02
chromatographic logP ([2]; pH 2.7, values given in the synthesis examples and NMR lists, read-out: HPLC-MS: log P): 1.02
pest or weed control at 6 ppm (Myzus persicae [3]; Myzus persicae, application rate of 6 ppm in nutrient medium, read-out: efficacy (kill in %)): 100%
pest or weed control at 30 ppm (Myzus persicae [3]; Myzus persicae, application rate of 30 ppm in nutrient medium, read-out: efficacy (kill in %)): 100%

Cc1cc(NC(=O)c2cccnc2)nn1C(=O)NCc1cccnc1 [Compound I-1-330]
efficacy in % (Myzus persicae [1]): 90%
log P (acid) ([2]; LC-MS in the acidic range): 0.64
efficacy (kill in %) (Myzus persicae [3]; [4]): 100%
efficacy (kill in %) (Myzus persicae [3]; [5]): 100%

Cc1cc(NC(=O)c2cccnc2)nn1C(=O)NCC[S+](C)[O-] (centres unmarked) [Compound I-1-308]
efficacy in % (Myzus persicae [1]): 90%
log P (acid) ([2]; LC-MS in the acidic range): 0.84
efficacy (kill in %) (Myzus persicae [3]; [4]): 100%
efficacy (kill in %) (Myzus persicae [3]; [5]): 100%

Cc1cc(NC(=O)c2cccnc2)nn1C(=O)NCC1CCCO1 (centres unmarked) [Compound I-1-311]
efficacy in % (Myzus persicae [1]): 90%
log P (acid) ([2]; LC-MS in the acidic range): 1.45
efficacy (kill in %) (Myzus persicae [3]; [5]): 100%

Cc1cc(NC(=O)c2cccnc2)nn1CS(C)(=O)=O [Compound I-1-244]
efficacy in % (Myzus persicae [1]): 90%
log P (acid) ([2]; LC-MS in the acidic range): 0.59
efficacy (kill in %) (Myzus persicae [3]; [4]): 100%
efficacy (kill in %) (Myzus persicae [3]; [5]): 100%

C#CCN(C(=O)c1cccnc1)c1cc(C)n(Cc2ncccn2)n1 [Compound I-1-264]
efficacy in % (Myzus persicae [1]): 90%
log P (acid) ([2]; LC-MS in the acidic range): 0.98
efficacy (kill in %) (Myzus persicae [3]; [4]): 100%
efficacy (kill in %) (Myzus persicae [3]; [5]): 100%

COCCNC(=O)n1nc(NC(=O)c2cccnc2)cc1C [Compound I-1-163]
efficacy in % (Myzus persicae [1]): 100%
log P (acid) ([2]; LC-MS in the acidic range): 1.22
efficacy (kill in %) (Myzus persicae [3]; [4]): 100%
efficacy (kill in %) (Myzus persicae [3]; [5]): 100%

COC(=O)OCCn1nc(NC(=O)c2cccnc2)cc1C [Compound I-1-191]
efficacy in % (Myzus persicae [1]): 90%
log P (acid) ([2]; LC-MS in the acidic range): 0.98
efficacy (kill in %) (Myzus persicae [3]; [4]): 100%
efficacy (kill in %) (Myzus persicae [3]; [5]): 100%

Cc1cc(NC(=O)c2cccnc2)nn1-c1cnccn1 [Compound I-1-55]
efficacy in % (Myzus persicae [1]): 80%
log P (acid) ([2]; LC-MS in the acidic range): 1.27
efficacy (kill in %) (Myzus persicae [3]; [5]): 100%

Cc1cc(NC(=O)c2cccnc2)nn1-c1ncccc1Cl [Compound I-1-34]
efficacy in % (Myzus persicae [1]): 100%
log P (acid) ([2]; LC-MS in the acidic range): 1.35
efficacy (kill in %) (Myzus persicae [3]; [4]): 100%
efficacy (kill in %) (Myzus persicae [3]; [5]): 100%

Cc1ccnn1Cn1nc(NC(=O)c2cccnc2)cc1C [Compound I-1-220]
efficacy in % (Myzus persicae [1]): 90%
log P (acid) ([2]; LC-MS in the acidic range): 1.17
efficacy (kill in %) (Myzus persicae [3]; [4]): 100%
efficacy (kill in %) (Myzus persicae [3]; [5]): 100%

O=C(Nc1ccn(C(CF)CF)n1)c1cccnc1 [Compound I-1-65]
efficacy in % (Myzus persicae [1]): 90%
log P (acid) ([2]; LC-MS in the acidic range): 0.84
efficacy (kill in %) (Myzus persicae [3]; [4]): 100%
efficacy (kill in %) (Myzus persicae [3]; [5]): 100%

Cc1cc(C)nc(CNC(=O)n2nc(NC(=O)c3cccnc3)cc2C)n1 [Compound I-1-338]
efficacy in % (Myzus persicae [1]): 90%
log P (acid) ([2]; LC-MS in the acidic range): 1.43
efficacy (kill in %) (Myzus persicae [3]; [4]): 100%
efficacy (kill in %) (Myzus persicae [3]; [5]): 100%

Cc1cc(NC(=O)c2cccnc2)nn1CC1OCCO1 [Compound I-1-180]
efficacy in % (Myzus persicae [1]): 100%
log P (acid) ([2]; LC-MS in the acidic range): 0.81
efficacy (kill in %) (Myzus persicae [3]; [4]): 80%
efficacy (kill in %) (Myzus persicae [3]; [5]): 100%

Cc1cc(NC(=O)c2cccnc2)nn1C1CCCCC1 [Compound I-1-204]
efficacy in % (Myzus persicae [1]): 90%
log P (acid) ([2]; LC-MS in the acidic range): 2.02
efficacy (kill in %) (Myzus persicae [3]; [4]): 80%
efficacy (kill in %) (Myzus persicae [3]; [5]): 80%

Cc1cc(NC(=O)c2cccnc2)nn1S(=O)(=O)c1ccccn1 [Compound I-1-279]
efficacy in % (Myzus persicae [1]): 90%
log P (acid) ([2]; LC-MS in the acidic range): 1.51
efficacy (kill in %) (Myzus persicae [3]; [4]): 100%
efficacy (kill in %) (Myzus persicae [3]; [5]): 100%

CCCC(C)NC(=O)n1nc(NC(=O)c2cccnc2)cc1C (centres unmarked) [Compound I-1-318]
efficacy in % (Myzus persicae [1]): 90%
log P (acid) ([2]; LC-MS in the acidic range): 2.18
efficacy (kill in %) (Myzus persicae [3]; [4]): 100%
efficacy (kill in %) (Myzus persicae [3]; [5]): 100%

CNC(=O)Cn1nc(NC(=O)c2cccnc2)cc1C [Compound I-1-124]
efficacy in % (Myzus persicae [1]): 90%
log P (acid) ([2]; LC-MS in the acidic range): 0.29
efficacy (kill in %) (Myzus persicae [3]; [4]): 100%
efficacy (kill in %) (Myzus persicae [3]; [5]): 100%

COC(=O)C(C)(C)NC(=O)Cn1nc(NC(=O)c2cccnc2)cc1C [Compound I-1-32]
efficacy in % (Myzus persicae [1]): 90%
log P (acid) ([2]; LC-MS in the acidic range): 0.72
efficacy (kill in %) (Myzus persicae [3]; [4]): 100%
efficacy (kill in %) (Myzus persicae [3]; [5]): 100%

Cc1cc(NC(=O)c2cccnc2)nn1Cn1cncn1 [Compound I-1-224]
efficacy in % (Myzus persicae [1]): 100%
log P (acid) ([2]; LC-MS in the acidic range): 0.58
efficacy (kill in %) (Myzus persicae [3]; [4]): 100%
efficacy (kill in %) (Myzus persicae [3]; [5]): 100%

Cc1cc(NC(=O)c2cccnc2)nn1Cc1cccnc1 [Compound I-1-15]
efficacy in % (Myzus persicae [1]): 90%
log P (acid) ([2]; LC-MS in the acidic range): 0.12
efficacy (kill in %) (Myzus persicae [3]; [4]): 100%
efficacy (kill in %) (Myzus persicae [3]; [5]): 100%

COc1nc(NC(=O)c2cccnc2)nn1C [Compound I-2-16]
efficacy in % (Myzus persicae [1]): 90%
log P (acid) ([2]; Table 2, compounds of the formula (I-2), acidic range pH 2.7 or pH 2.3): 0.00
efficacy (kill in %) (Myzus persicae [3]; [5]): 100%

Cc1cc(NC(=O)c2cccnc2)nn1Cc1nccn1C [Compound I-1-293]
efficacy in % (Myzus persicae [1]): 90%
log P (acid) ([2]; LC-MS in the acidic range): −0.21
efficacy (kill in %) (Myzus persicae [3]; [4]): 100%
efficacy (kill in %) (Myzus persicae [3]; [5]): 100%

CCCNC(=O)n1nc(NC(=O)c2cccnc2)cc1C [Compound I-1-314]
efficacy in % (Myzus persicae [1]): 90%
log P (acid) ([2]; LC-MS in the acidic range): 1.56
efficacy (kill in %) (Myzus persicae [3]; [4]): 100%
efficacy (kill in %) (Myzus persicae [3]; [5]): 100%

Cc1cc(NC(=O)c2cccnc2)nn1Cn1ccc(C(F)(F)F)n1 [Compound I-1-228]
efficacy in % (Myzus persicae [1]): 90%
log P (acid) ([2]; LC-MS in the acidic range): 1.86
efficacy (kill in %) (Myzus persicae [3]; [4]): 100%
efficacy (kill in %) (Myzus persicae [3]; [5]): 100%

Cc1cc(N(C)C(=O)c2cccnc2)nn1CC1CCCO1 (centres unmarked) [Compound I-1-181]
efficacy in % (Myzus persicae [1]): 90%
log P (acid) ([2]; LC-MS in the acidic range): 1.05
efficacy (kill in %) (Myzus persicae [3]; [5]): 80%

Cc1cc(NC(=O)c2cccnc2)nn1CC(C)C [Compound I-1-12]
efficacy in % (Myzus persicae [1]): 80%
log P (acid) ([2]; LC-MS in the acidic range): 1.59
efficacy (kill in %) (Myzus persicae [3]; [4]): 100%
efficacy (kill in %) (Myzus persicae [3]; [5]): 100%

O=C(Nc1ccn(-c2ncc(C(F)(F)F)cc2Cl)n1)c1cccnc1 [Compound I-1-63]
efficacy in % (Myzus persicae [1]): 100%
log P (acid) ([2]; LC-MS in the acidic range): 2.18
efficacy (kill in %) (Myzus persicae [3]; [5]): 100%

Cc1cc(NC(=O)c2cccnc2)nn1C(=O)NC1CC1 [Compound I-1-312]
efficacy in % (Myzus persicae [1]): 90%
log P (acid) ([2]; LC-MS in the acidic range): 1.27
efficacy (kill in %) (Myzus persicae [3]; [4]): 100%
efficacy (kill in %) (Myzus persicae [3]; [5]): 100%

Cc1cc(NC(=O)c2cccnc2)nn1C [Compound I-1-3]
efficacy in % (Myzus persicae [1]): 90%
log P (acid) ([2]; LC-MS in the acidic range): 0.63
efficacy (kill in %) (Myzus persicae [3]; [4]): 100%
efficacy (kill in %) (Myzus persicae [3]; [5]): 100%

Cc1cc(NC(=O)c2cccnc2)nn1-c1ccc(F)cc1 [Compound I-1-203]
efficacy in % (Myzus persicae [1]): 90%
log P (acid) ([2]; LC-MS in the acidic range): 1.79
efficacy (kill in %) (Myzus persicae [3]; [4]): 80%
efficacy (kill in %) (Myzus persicae [3]; [5]): 100%

Cc1c(F)c(NC(=O)c2cccnc2)nn1Cc1ncccn1 [Compound I-1-211]
efficacy in % (Myzus persicae [1]): 90%
log P (acid) ([2]; LC-MS in the acidic range): 0.72
efficacy (kill in %) (Myzus persicae [3]; [4]): 100%
efficacy (kill in %) (Myzus persicae [3]; [5]): 100%

C#CCn1ccc(NC(=O)c2cccnc2)n1 [Compound I-1-54]
efficacy in % (Myzus persicae [1]): 90%
log P (acid) ([2]; LC-MS in the acidic range): 0.69
efficacy (kill in %) (Myzus persicae [3]; [4]): 100%
efficacy (kill in %) (Myzus persicae [3]; [5]): 100%

From patent US20160106102A1, “KNOWN AND NEW HETEROCYCLIC COMPOUNDS AS PEST CONTROL AGENTS” (BAYER CROPSCIENCE AKTIENGESELLSCHAFT, priority 2013, published 2016)
